In the NIST ThermoML archive (doi:10.1021/je700224j):

Conditions: Liquid

CCCC[n+]1ccn(C)c1.O=S(=O)([N-]S(=O)(=O)C(F)(F)F)C(F)(F)F
Conditions	mass density [kg/m3]
293.49 K, 101.33 kPa	1442.2
293.49 K, 1000 kPa	1442.8
293.49 K, 10000 kPa	1449
293.49 K, 30000 kPa	1462.1
293.49 K, 40000 kPa	1468.4
293.5 K, 5000 kPa	1445.6
293.5 K, 20000 kPa	1455.7
303.15 K, 101.33 kPa	1433
312.84 K, 101.33 kPa	1423.9
322.3 K, 10000 kPa	1422.5
322.3 K, 40000 kPa	1443.6
322.31 K, 101.33 kPa	1414.9
322.31 K, 1000 kPa	1415.6
322.31 K, 20000 kPa	1429.8
322.31 K, 30000 kPa	1436.8
322.32 K, 5000 kPa	1418.7
332.78 K, 101.33 kPa	1405.1
342.98 K, 101.33 kPa	1395.5
352.31 K, 5000 kPa	1390.9
352.31 K, 10000 kPa	1395.1
352.32 K, 20000 kPa	1403
352.32 K, 30000 kPa	1410.7
352.32 K, 40000 kPa	1418
352.33 K, 101.33 kPa	1386.6
352.33 K, 1000 kPa	1387.5
373.3 K, 30000 kPa	1392.7
373.31 K, 5000 kPa	1371.6
373.31 K, 20000 kPa	1384.5
373.32 K, 101.33 kPa	1367.1
373.32 K, 1000 kPa	1368
373.32 K, 10000 kPa	1376
373.33 K, 40000 kPa	1400.4
391.27 K, 1000 kPa	1351.3
391.28 K, 101.33 kPa	1350.4
391.28 K, 10000 kPa	1359.8
391.28 K, 20000 kPa	1368.8
391.28 K, 30000 kPa	1377.3
391.28 K, 40000 kPa	1385.4
391.3 K, 5000 kPa	1355.1
414.91 K, 20000 kPa	1348.1
414.91 K, 40000 kPa	1365.8
414.92 K, 101.33 kPa	1328.5
414.92 K, 1000 kPa	1329.5
414.92 K, 5000 kPa	1333.6
414.92 K, 10000 kPa	1338.6
414.92 K, 30000 kPa	1357.2

CCn1cc[n+](C)c1.O=S(=O)([N-]S(=O)(=O)C(F)(F)F)C(F)(F)F
Conditions	mass density [kg/m3]
293.49 K, 101.33 kPa	1522.3
293.49 K, 10000 kPa	1527.8
293.49 K, 20000 kPa	1533.3
293.49 K, 30000 kPa	1538.6
293.49 K, 40000 kPa	1543.6
293.5 K, 1000 kPa	1522.9
293.5 K, 5000 kPa	1525
302.68 K, 101.33 kPa	1513.2
312.64 K, 101.33 kPa	1503.2
322.3 K, 101.33 kPa	1493.2
322.3 K, 10000 kPa	1499.5
322.3 K, 20000 kPa	1505.3
322.3 K, 40000 kPa	1516.3
322.31 K, 5000 kPa	1496.5
322.31 K, 30000 kPa	1510.9
322.32 K, 1000 kPa	1494
332.58 K, 101.33 kPa	1483.2
342.49 K, 101.33 kPa	1473.6
352.3 K, 20000 kPa	1476.5
352.3 K, 40000 kPa	1488.2
352.31 K, 10000 kPa	1470.2
352.32 K, 101.33 kPa	1463.6
352.32 K, 5000 kPa	1467
352.32 K, 30000 kPa	1482.5
352.34 K, 1000 kPa	1464.4
373.3 K, 5000 kPa	1446.5
373.3 K, 30000 kPa	1462.8
373.31 K, 1000 kPa	1443.9
373.32 K, 101.33 kPa	1443.2
373.32 K, 10000 kPa	1449.9
373.33 K, 20000 kPa	1456.5
373.33 K, 40000 kPa	1468.7
391.25 K, 1000 kPa	1426.3
391.28 K, 10000 kPa	1432.6
391.28 K, 30000 kPa	1446
391.29 K, 101.33 kPa	1425.6
391.29 K, 5000 kPa	1429
391.31 K, 20000 kPa	1439.4
391.31 K, 40000 kPa	1452.3
414.92 K, 101.33 kPa	1402.4
414.92 K, 5000 kPa	1406
414.92 K, 10000 kPa	1409.8
414.92 K, 20000 kPa	1417.2
414.92 K, 30000 kPa	1424.2
414.92 K, 40000 kPa	1430.9
414.93 K, 1000 kPa	1403.1

CCCCn1cc[n+](C)c1.F[P-](F)(F)(F)(F)F [1-butyl-3-methylimidazolium hexafluorophosphate]
Conditions	mass density [kg/m3]
293.48 K, 1000 kPa	1369.9
293.49 K, 101.33 kPa	1369.8
293.49 K, 20000 kPa	1378.3
293.5 K, 10000 kPa	1374
293.5 K, 40000 kPa	1385.9
293.51 K, 5000 kPa	1371.7
293.51 K, 30000 kPa	1382.2
302.73 K, 101.33 kPa	1362
312.86 K, 101.33 kPa	1353.5
322.28 K, 101.33 kPa	1345.5
322.3 K, 10000 kPa	1350.6
322.3 K, 20000 kPa	1355.2
322.31 K, 1000 kPa	1346.2
322.31 K, 40000 kPa	1363.3
322.33 K, 5000 kPa	1348.2
322.33 K, 30000 kPa	1359.3
332.73 K, 101.33 kPa	1337
342.5 K, 101.33 kPa	1328.7
352.29 K, 101.33 kPa	1320.9
352.3 K, 40000 kPa	1339.8
352.31 K, 1000 kPa	1321.6
352.31 K, 10000 kPa	1326.3
352.31 K, 20000 kPa	1331.2
352.32 K, 5000 kPa	1323.7
352.34 K, 30000 kPa	1335.6
373.3 K, 5000 kPa	1306.6
373.31 K, 10000 kPa	1309.4
373.32 K, 30000 kPa	1319
373.33 K, 101.33 kPa	1303.9
373.33 K, 1000 kPa	1304.4
373.33 K, 40000 kPa	1323.3
373.34 K, 20000 kPa	1314.3
391.27 K, 10000 kPa	1294.7
391.28 K, 30000 kPa	1304.7
391.3 K, 101.33 kPa	1289.1
391.3 K, 5000 kPa	1292
391.31 K, 20000 kPa	1300
391.31 K, 40000 kPa	1309.1
391.32 K, 1000 kPa	1289.5
414.91 K, 10000 kPa	1275.6
414.92 K, 20000 kPa	1281
414.92 K, 40000 kPa	1290.5
414.93 K, 101.33 kPa	1269.7
414.93 K, 5000 kPa	1272.6
414.93 K, 30000 kPa	1285.9
414.94 K, 1000 kPa	1270.2

CCCCn1cc[n+](C)c1.F[B-](F)(F)F [1-butyl-3-methylimidazolium tetrafluoroborate]
Conditions	mass density [kg/m3]
292.94 K, 101.33 kPa	1204.8
293.49 K, 10000 kPa	1208.5
293.49 K, 30000 kPa	1216.5
293.49 K, 40000 kPa	1220.4
293.5 K, 1000 kPa	1204.7
293.5 K, 20000 kPa	1212.6
293.51 K, 5000 kPa	1206.5
302.8 K, 101.33 kPa	1197.5
312.79 K, 101.33 kPa	1190.2
322.3 K, 10000 kPa	1187.7
322.3 K, 40000 kPa	1200.4
322.31 K, 1000 kPa	1183.6
322.31 K, 20000 kPa	1192
322.31 K, 30000 kPa	1196.2
322.33 K, 5000 kPa	1185.4
322.83 K, 101.33 kPa	1182.9
332.53 K, 101.33 kPa	1175.8
342.72 K, 101.33 kPa	1168.6
352.31 K, 10000 kPa	1166.5
352.32 K, 101.33 kPa	1161.7
352.32 K, 5000 kPa	1164.1
352.32 K, 20000 kPa	1171.1
352.32 K, 30000 kPa	1175.7
352.33 K, 1000 kPa	1162.1
352.33 K, 40000 kPa	1180.01
373.31 K, 5000 kPa	1149.4
373.31 K, 20000 kPa	1156.8
373.32 K, 101.33 kPa	1146.9
373.32 K, 10000 kPa	1152
373.33 K, 30000 kPa	1161.6
373.33 K, 40000 kPa	1166.1
373.34 K, 1000 kPa	1147.3
391.27 K, 1000 kPa	1135
391.29 K, 101.33 kPa	1134.5
391.29 K, 10000 kPa	1139.7
391.29 K, 20000 kPa	1144.8
391.29 K, 30000 kPa	1149.7
391.29 K, 40000 kPa	1154.4
391.31 K, 5000 kPa	1137.1
414.92 K, 101.33 kPa	1116.5
414.92 K, 5000 kPa	1119.4
414.92 K, 20000 kPa	1127.4
414.92 K, 40000 kPa	1137.4
414.93 K, 1000 kPa	1117.1
414.93 K, 10000 kPa	1122.1
414.93 K, 30000 kPa	1132.5

CCOS(=O)(=O)[O-].CCn1cc[n+](C)c1 [1-ethyl-3-methylimidazolium ethyl sulfate]
Conditions	mass density [kg/m3]
292.49 K, 101.33 kPa	1242.1
293.46 K, 10000 kPa	1250.9
293.46 K, 20000 kPa	1259.3
293.47 K, 1000 kPa	1242.9
293.47 K, 5000 kPa	1246.5
293.47 K, 30000 kPa	1267.5
293.48 K, 40000 kPa	1275.4
302.61 K, 101.33 kPa	1236.7
312.47 K, 101.33 kPa	1230.7
322.3 K, 101.33 kPa	1224.4
322.31 K, 1000 kPa	1225.6
322.31 K, 5000 kPa	1229.5
322.31 K, 20000 kPa	1243.3
322.31 K, 40000 kPa	1260.6
322.32 K, 10000 kPa	1234.2
322.33 K, 30000 kPa	1252.1
332.74 K, 101.33 kPa	1218.4
342.42 K, 101.33 kPa	1212.6
352.32 K, 101.33 kPa	1206.3
352.33 K, 1000 kPa	1207.6
352.33 K, 5000 kPa	1211.8
352.33 K, 10000 kPa	1216.9
352.34 K, 20000 kPa	1226.7
352.34 K, 30000 kPa	1236
352.34 K, 40000 kPa	1245.2
373.36 K, 101.33 kPa	1194.1
373.36 K, 1000 kPa	1195
373.36 K, 5000 kPa	1199.4
373.36 K, 10000 kPa	1204.8
373.36 K, 30000 kPa	1225
373.36 K, 40000 kPa	1234.4
373.37 K, 20000 kPa	1215
391.39 K, 101.33 kPa	1183.2
391.39 K, 1000 kPa	1184.2
391.39 K, 5000 kPa	1188.8
391.39 K, 10000 kPa	1194.6
391.39 K, 30000 kPa	1215.4
391.39 K, 40000 kPa	1225.2
391.41 K, 20000 kPa	1205.1
414.94 K, 10000 kPa	1180.8
414.94 K, 20000 kPa	1192.1
414.94 K, 30000 kPa	1202.9
414.95 K, 101.33 kPa	1169.1
414.95 K, 1000 kPa	1170.2
414.95 K, 5000 kPa	1174.9
414.95 K, 40000 kPa	1213.2
